Measured values as given in ChEMBL document CHEMBL1201862, “PubChem BioAssay data set” (2004).
Active and inactive are the calls of the source.

Tests used:
CAAX prenyl protease 2 [1] = target: T1, CAAX prenyl protease 2 (Saccharomyces cerevisiae S288c, UniProt Q03530); type: biochemical
T1 sequence (Q03530 whole entry): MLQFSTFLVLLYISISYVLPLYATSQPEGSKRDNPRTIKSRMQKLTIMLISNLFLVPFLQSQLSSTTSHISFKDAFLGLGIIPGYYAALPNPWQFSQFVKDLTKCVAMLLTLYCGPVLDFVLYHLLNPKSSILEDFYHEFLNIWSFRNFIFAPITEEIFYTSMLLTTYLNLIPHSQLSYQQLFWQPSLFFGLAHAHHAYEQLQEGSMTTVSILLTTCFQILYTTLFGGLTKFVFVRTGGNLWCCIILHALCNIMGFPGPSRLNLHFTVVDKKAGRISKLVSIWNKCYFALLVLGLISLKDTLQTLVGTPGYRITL

[2] = target: Mitogen-activated protein kinase 10 (Homo sapiens, UniProt P53779); test: Dose response biochemical screening assay for inhibitors of c-Jun N-Terminal Kinase 3 (JNK3). [Related pubchem assays: 746 ]
Chain of Mitogen-activated protein kinase 10 (P53779 whole entry): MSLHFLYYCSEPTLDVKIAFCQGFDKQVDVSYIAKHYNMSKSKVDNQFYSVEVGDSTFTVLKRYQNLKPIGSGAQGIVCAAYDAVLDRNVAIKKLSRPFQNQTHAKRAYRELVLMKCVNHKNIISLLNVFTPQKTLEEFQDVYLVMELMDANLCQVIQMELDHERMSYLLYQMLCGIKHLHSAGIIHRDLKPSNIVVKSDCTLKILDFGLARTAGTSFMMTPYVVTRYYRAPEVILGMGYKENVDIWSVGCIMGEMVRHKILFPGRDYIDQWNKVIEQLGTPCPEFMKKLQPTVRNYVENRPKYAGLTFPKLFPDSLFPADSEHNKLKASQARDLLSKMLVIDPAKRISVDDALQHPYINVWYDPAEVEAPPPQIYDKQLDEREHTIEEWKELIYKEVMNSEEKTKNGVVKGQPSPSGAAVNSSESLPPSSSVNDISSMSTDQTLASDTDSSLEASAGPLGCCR

CAAX prenyl protease 1 = CAAX prenyl protease 1 (Saccharomyces cerevisiae S288c, UniProt P47154); test: yeast CAAX protease Ste24 inhibition – biochemical, S. cerevisiae, plate reader, cherry-pick, dose response (AID 488815)
Chain of CAAX prenyl protease 1 (P47154 whole entry): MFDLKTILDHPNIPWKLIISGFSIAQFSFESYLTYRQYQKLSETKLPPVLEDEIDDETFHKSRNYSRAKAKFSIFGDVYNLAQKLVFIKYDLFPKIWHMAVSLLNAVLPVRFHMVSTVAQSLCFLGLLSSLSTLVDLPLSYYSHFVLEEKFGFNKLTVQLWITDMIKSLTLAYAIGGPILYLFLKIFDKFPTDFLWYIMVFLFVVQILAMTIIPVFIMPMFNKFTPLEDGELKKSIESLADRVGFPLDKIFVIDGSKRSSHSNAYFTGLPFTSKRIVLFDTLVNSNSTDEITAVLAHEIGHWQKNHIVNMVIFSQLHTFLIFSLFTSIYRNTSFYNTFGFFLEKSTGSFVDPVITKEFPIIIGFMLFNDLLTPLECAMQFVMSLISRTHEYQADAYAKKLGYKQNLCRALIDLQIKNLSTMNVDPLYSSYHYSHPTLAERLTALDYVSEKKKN

Trypsin = Trypsin (Sus scrofa, UniProt P00761); test: trypsin protease activity blockade – biochemical, quenched peptide fluorescence, cherry-pick, selectivity assay for Rce1 protease inhibitor project, dose response (AID 488789)
Chain of Trypsin (P00761 whole entry): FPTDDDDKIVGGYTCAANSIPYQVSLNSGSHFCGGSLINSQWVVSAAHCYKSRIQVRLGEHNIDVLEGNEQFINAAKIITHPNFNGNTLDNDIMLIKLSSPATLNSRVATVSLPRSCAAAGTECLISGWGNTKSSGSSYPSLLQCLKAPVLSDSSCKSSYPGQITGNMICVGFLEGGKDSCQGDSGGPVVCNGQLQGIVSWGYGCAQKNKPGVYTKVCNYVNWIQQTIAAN

CAAX prenyl protease 2 [3] = target: CAAX prenyl protease 2 (Homo sapiens, UniProt Q9Y256); test: inhibition of Ras-converting CAAX protease Rce1 – biochemical, yeast membranes, quenched-peptide fluorescence, cherry-pick, dose response (AID 588849)
Chain of CAAX prenyl protease 2 (Homo sapiens, UniProt Q9Y256) (Q9Y256 whole entry): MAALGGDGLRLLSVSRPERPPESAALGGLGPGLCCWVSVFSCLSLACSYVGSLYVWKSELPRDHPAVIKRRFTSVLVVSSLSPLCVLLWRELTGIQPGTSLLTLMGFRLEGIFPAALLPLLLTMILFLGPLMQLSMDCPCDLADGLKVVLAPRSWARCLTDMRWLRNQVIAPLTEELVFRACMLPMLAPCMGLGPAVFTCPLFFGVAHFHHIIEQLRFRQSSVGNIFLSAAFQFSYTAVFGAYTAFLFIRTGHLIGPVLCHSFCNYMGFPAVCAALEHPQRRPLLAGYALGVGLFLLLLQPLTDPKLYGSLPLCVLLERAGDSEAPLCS

[4] = target: UDP-galactopyranose mutase (Mycobacterium tuberculosis, UniProt P9WIQ1); test: Inhibitors of Mycobacterium tuberculosis UDP-galactopyranose mutase (UGM) enzyme Measured in Biochemical System Using Plate Reader - 2105-02_Inhibitor_Dose_CherryPick_Activity. [Related pubchem assays (depositor defined):AID504439]
Chain of UDP-galactopyranose mutase (P9WIQ1 whole entry): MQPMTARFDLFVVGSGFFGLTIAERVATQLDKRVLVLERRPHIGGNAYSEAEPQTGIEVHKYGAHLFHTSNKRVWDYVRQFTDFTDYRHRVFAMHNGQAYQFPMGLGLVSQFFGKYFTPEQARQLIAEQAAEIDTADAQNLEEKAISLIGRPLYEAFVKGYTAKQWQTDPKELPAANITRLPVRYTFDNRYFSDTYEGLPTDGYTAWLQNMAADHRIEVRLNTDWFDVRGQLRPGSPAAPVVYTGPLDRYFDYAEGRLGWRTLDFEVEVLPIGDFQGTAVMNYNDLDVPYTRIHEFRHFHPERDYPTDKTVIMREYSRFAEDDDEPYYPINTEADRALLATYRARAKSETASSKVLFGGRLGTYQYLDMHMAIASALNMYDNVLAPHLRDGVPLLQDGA

[5] = decrease of insulin promoter-GFP reporter – imaging, high-content screening, mouse beta cells (AID 1628); type: functional; conditions: MIN6
[6] = Luminescence Cell-Based Dose Response HTS to Identify Inhibitors of 5'UTR Stem-Loop Driven Prion Protein mRNA Translation in H4 Neuroglioblastoma Cells. [Related pubchem assays: 1827 (Project Summary), 1813 (Primary HTS)]; type: functional
[7] = viability of HCT116 lacking mutant beta-catenin – cell-based, human colon tumor, dose response (AID 1045); type: functional;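 further: HCT116 colon tumor cells with beta catenin knocked out; cells exposed to compound for 60 hours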
[8] = MIN6 cell viability loss – mouse insulinoma, cytotoxicity control, dose response (AID 2122); type: functional;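 further: confirmatory high-throughput counterscreen run to flag cytotoxic compounds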
[9] = alpha-synuclein stem-loop luciferase translation blockers – H4 neuroglioma cells, luminescence, confirmation (AID 1988); type: functional, cell-based
[10] = luciferase reporter signal suppression in cells – H4 neuroglioma cells, luminescence, dose response (AID 1990); type: functional, cell-based
[11] = viability of PTEN-deleted HCT116 cells – cell-based, HCT116 PTEN knockout, dose response (AID 1047); type: functional;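 further: HCT116 colon tumor cells with PTEN knocked out; cells exposed to compound for 60 hours before readout; potency for loss of cell viability measured by luminescence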

With `COC(=O)c1ccccc1NC(=O)NCc1cccnc1` the AC50 (CAAX prenyl protease 2 [1]) was 26.1 µM (active), the IC50 [2] was > 93.1 µM (not active) and the AC50 (CAAX prenyl protease 1) was 3.47 µM (active).

In the case of `Cc1ccnc(SCc2cn3c(C)cc(C)nc3n2)n1`, the AC50 (Trypsin) is reported as 20.2 µM (active) and the AC50 (CAAX prenyl protease 2 [3]) is reported as > 100 µM (inactive).

With `O=C1NC(c2cccs2)Nc2sc3c(c21)CCCC3` (stereo not drawn) the AC50 [4] was 129 µM (active).

In the case of `COc1ccc(N2CCN(Cc3nc(N)nc(Nc4ccc(C)c(Cl)c4)n3)CC2)cc1`, the IC50 [5] is reported as 3.03 µM (active), the EC50 [6] is reported as 26.8 µM (active) and the EC50 [7] is reported as 24 µM (active). The IC50 [8] was 4.31 µM (active), the EC50 [9] was 13.7 µM (active) and the EC50 [10] was 9.58 µM (active). The EC50 [11] was 28.9 µM (active).
